Data: PubChem BioAssay (NCI)
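Each compound was tested at five concentrations against cells in 96-well plates for 48 hours. GI50 is the concentration that inhibits growth by half. TGI is the concentration that stops growth completely.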

Columns and labels:
Experiment in all cases: NCI anticancer screen, dose series, 48 h
SF-295 CNS = system: SF-295 CNS
TK-10 renal = system: TK-10 renal
IGROV1 ovarian = system: IGROV1 ovarian
T-47D breast = system: T-47D breast
OVCAR-8 ovarian = system: OVCAR-8 ovarian
NCI-H226 lung = system: NCI-H226 lung
MALME-3M melanoma = system: MALME-3M melanoma
SNB-19 CNS = system: SNB-19 CNS
SN12C renal = system: SN12C renal

Row | SMILES | TGI (SF-295 CNS) [µM] | TGI (TK-10 renal) [µM] | TGI (IGROV1 ovarian) [µM] | TGI (T-47D breast) [µM] | TGI (OVCAR-8 ovarian) [µM] | TGI (NCI-H226 lung) [µM] | TGI (MALME-3M melanoma) [µM] | TGI (SNB-19 CNS) [µM] | TGI (SN12C renal) [µM] | GI50 (SF-295 CNS) [nM] | GI50 (TK-10 renal) [nM] | GI50 (SNB-19 CNS) [nM]
1 | CC(C)=CCC[C@@H](C)C1=C(O)C(Nc2ccccc2F)=C(C)C(=O)C1=O | 30.4 | > 100 | > 69.5 | 57.7 | > 100 | > 78.7 | 41.1 | > 100 | > 100 | – | – | –
2 | Nc1ccc(S(=O)(=O)c2ccc(N=[N+]([O-])c3ccc(S(=O)(=O)c4ccc(N)cc4)cc3)cc2)cc1 | > 100 | > 88 | > 100 | > 100 | > 100 | 92.2 | > 100 | > 72.3 | > 100 | – | – | –
3 | CCC(=O)n1c(=O)n(-c2ccc([N+](=O)[O-])cc2)c(=O)n1C(=O)CC | > 100 | > 100 | > 100 | > 100 | > 100 | > 100 | – | > 100 | > 100 | – | – | –
4 | CC(=O)O[C@@H]1CC2[C@@H](CCC3Cc4nc5c(nc4C[C@@]32C)CC2CC[C@@H]3C(CC[C@@]4(C)C3CC[C@@H]4C(C)CCCC(C)C)[C@@]2(C)C5)C2C[C@@H]3OC4(CCC(C)CO4)C(C)[C@@H]3[C@]21C (stereo not given in full) | > 100 | > 100 | > 100 | > 100 | > 100 | 87.1 | > 100 | > 100 | > 100 | – | – | –
5 | CCOc1ccc(-n2c(=O)n3c(Nc4ccc(Cl)cc4)nc4c(c(=O)n(C)c(=O)n4C)n3c2=O)cc1 | > 100 | 66 | > 100 | > 100 | > 100 | 74.5 | – | > 100 | 74.6 | – | – | –
6 | CC(=O)C1C(=O)C(=O)N(c2ccc([N+](=O)[O-])cc2Cl)C1=O (stereo not given) | > 100 | > 100 | > 100 | – | > 100 | > 100 | – | > 100 | > 100 | – | – | –
7 | OC(C1CCCC1=N/N=C1/CCCC1C(O)(C(F)(F)Cl)C(F)(F)Cl)(C(F)(F)Cl)C(F)(F)Cl (stereo not given) | > 10 | > 10 | > 10 | > 10 | > 10 | > 10 | > 10 | > 10 | > 10 | – | – | –
8 | COC(=O)Nc1nc2ccc(NS(=O)(=O)c3ccc(F)cc3)cc2[nH]1 | 70.4 | 87 | 9.93 | > 100 | > 100 | > 100 | > 100 | > 100 | > 100 | – | – | –
9 | CC1(C)OCC(C2OC(=O)C(OCc3ccccc3)=C2OCc2ccccc2)O1 (stereo not given) | > 100 | > 100 | > 100 | > 100 | > 100 | > 100 | 93.9 | > 100 | > 100 | – | – | –
10 | CC(=N\N=C\c1ccccn1)/C(C)=N/N=C/c1ccccn1 | > 100 | > 100 | > 100 | > 100 | > 100 | > 100 | > 100 | > 100 | > 100 | – | – | –
11 | O=C(/C=C\c1ccc(OCCCCCC[P+](c2ccccc2)(c2ccccc2)c2ccccc2)cc1)c1ccc2c(c1)OCCO2 | 3.46 | 3.81 | – | – | – | – | – | 1.74 | – | 1780 | 1580 | 462
12 | CC1=NN(c2cccc(Cl)c2)C2(C1)SCC(=O)N2c1nc2ccccc2s1 (stereo not given) | 74.9 | 74.1 | > 100 | 84.4 | > 100 | 37.1 | > 100 | > 100 | 69.1 | – | – | –
13 | CCC(C)N1CN(c2ccccc2)C2(CCN(CCCC(=O)c3ccc(F)cc3)CC2)C1=O (stereo not given) | 15.8 | 16.5 | 18.7 | 15.9 | – | – | 27.8 | – | 14.3 | – | – | –
14 | CN(C)Cc1cc(C(=O)/C=C/c2c(F)cccc2Cl)cc(CN(C)C)c1O | 25.4 | 15.7 | 19 | 33.4 | 41.2 | 30.8 | 25.7 | 61.5 | 17.2 | – | – | –
15 | O=C1O[C@H](COC(=O)c2ccccc2)[C@@H](OC(=O)c2ccccc2)C=C1OC(=O)c1ccccc1 | 34.8 | 75.7 | 57.2 | 54.6 | 45.4 | 45.6 | – | 35.6 | 36.9 | – | – | –
16 | COc1ccc(C2c3c(-c4ccccc4)nn(-c4ccccc4)c3Oc3ncn(N)c(=N)c32)cc1OC (stereo not given) | 4.34 | 4.24 | 3.2 | 4.48 | 5.89 | 7.44 | 3.24 | 19.9 | 8.45 | – | – | –
17 | O=S(=O)(Nc1nc(-c2cc(O)c(O)c(O)c2)cs1)c1ccc(Cl)cc1Cl | 34.4 | 36.2 | 45.9 | 41.1 | 14.9 | > 100 | > 100 | > 100 | 33.4 | – | – | –
18 | O=C1CSC(c2c(O)ccc3ccccc23)N1n1c(=S)[nH]nc(/C=C/c2c(O)ccc3ccccc23)c1=O (stereo not given) | 37.2 | 28.2 | 26.7 | 15.1 | 21.4 | – | 16.8 | 76.6 | 14.2 | – | – | –
19 | Cc1ccc(N2C(=O)C(O)=C(C(=O)C(C)(C)C)C2c2ccc([N+](=O)[O-])cc2)cc1 (stereo not given) | 88.8 | 90.8 | 43.7 | 52.5 | 59.1 | 43.3 | 46 | > 100 | 52.8 | – | – | –
20 | O=C(O)C1C2CCC(C2)C1c1ccccc1 (stereo not given) | > 100 | > 100 | – | > 100 | > 100 | > 100 | > 100 | > 100 | > 100 | – | – | –
21 | CCOC(=S)SC/C(=N\OC(C)(C)OC)c1ccccc1 | > 100 | > 100 | > 100 | 63.1 | > 100 | > 100 | 75.9 | > 100 | > 100 | – | – | –
22 | COC(=O)C1(Cc2ccc3c(c2)CCC3)Cc2cc3c(cc2C1=O)CCC3 (stereo not given) | > 46.4 | > 46.4 | > 46.4 | > 46.4 | > 46.4 | > 46.4 | > 46.4 | > 46.4 | > 46.4 | – | – | –
